Measurements published in patent US20250115590A1, “MATRIX METALLOPROTEINASE (MMP) INHIBITORS AND METHODS OF USE THEREOF” (Foresee Pharmaceuticals USA, Inc., priority 2018, published 2025).
Where two headings read alike, the source gives them in different places.

Key:
Assay type in all cases: biochemical
[1] = target: recombinant human MMP-12 catalytic domain (Homo sapiens (Human), UniProt P39900); assay: MMP-12 inhibitory assay (fluorogenic substrate cleavage)
Protocol: (§1) The inhibitory effect of compounds on the rate of cleaving fluorogenic MMP substrate (Enzo, BML-P128) by recombinant human MMP-12 catalytic domain (Enzo, BML-SE138) was carried out by methods known in the art. Briefly, to each well of a 96-well black opaque plate, all the reagents were sequentially added by pipetting, and the final reaction contained 4 nM of recombinant human MMP-12 catalytic domain, […] of fluorogenic MMP substrate, and various concentrations (0.15 nM to 10,000 nM) of tested compound dilutions in HEPES buffer (pH 7.5) containing 10 mM of CaCl2, 0.01% Brij® 35 (polyoxyethylene (23) lauryl ether), and 0.1 mg/ml of BSA.
(§2) The enzyme and compounds were pre-incubated on a shaker to mix in wells. After an hour of mixing, fluorogenic substrate was added to each well. Reaction without enzyme was used as a blank control in the plate. The plate was then fed into a plate reader to measure fluorescence intensity at Excitation/Emission wavelengths of 340 nm/440 nm every 10 mins for at least 1 hour at 37° C. The IC50 of each compound in MMP-12 inhibition was determined by using a readout obtained at time point 30 minutes.

recombinant human MMP-3 = recombinant human MMP-3 (Homo sapiens (Human), UniProt P08254); assay: MMP selectivity assay, MMP-3; conditions: Table 2 selectivity profile; read-out: MMP-3 Activity (IC50 class)
Protocol: as §1, §2
(§3) The MMP selectivity assay was performed by using other recombinant human MMPs, including MMP-1, MMP-2, MMP-3, MMP-7, MMP-8, MMP-9, MMP-10, MMP-13, and MMP-14. The IC50 of the compounds for the other recombinant human MMPs was determined as described above in Example 1, and are shown in Table 2.

recombinant human MMP-9 = recombinant human MMP-9 (Homo sapiens (Human), UniProt P14780); assay: MMP selectivity assay, MMP-9; conditions: Table 2 selectivity profile; read-out: MMP-9 Activity (IC50 class)
Protocol: as §1, §2, §3

recombinant human MMP-10 = recombinant human MMP-10 (Homo sapiens (Human), UniProt P09238); assay: MMP selectivity assay, MMP-10; conditions: Table 2 selectivity profile; read-out: MMP-10 Activity (IC50 class)
Protocol: as §1, §2, §3

recombinant human MMP-14 = recombinant human MMP-14 (Homo sapiens (Human), UniProt P50281); assay: MMP selectivity assay, MMP-14; conditions: Table 2 selectivity profile; read-out: MMP-14 Activity (IC50 class)
Protocol: as §1, §2, §3

recombinant human MMP-2 = recombinant human MMP-2 (Homo sapiens (Human), UniProt P08253); assay: MMP selectivity assay, MMP-2; conditions: Table 2 selectivity profile; read-out: MMP-2 Activity (IC50 class)
Protocol: as §1, §2, §3

recombinant human MMP-13 = recombinant human MMP-13 (Homo sapiens (Human), UniProt P45452); assay: MMP selectivity assay, MMP-13; conditions: Table 2 selectivity profile; read-out: MMP-13 Activity (IC50 class)
Protocol: as §1, §2, §3

recombinant human MMP-8 = recombinant human MMP-8 (Homo sapiens (Human), UniProt P22894); assay: MMP selectivity assay, MMP-8; conditions: Table 2 selectivity profile; read-out: MMP-8 Activity (IC50 class)
Protocol: as §1, §2, §3

recombinant human MMP-7 = recombinant human MMP-7 (Homo sapiens (Human), UniProt P09237); assay: MMP selectivity assay, MMP-7; conditions: Table 2 selectivity profile; read-out: MMP-7 Activity (IC50 class)
Protocol: as §1
as §2, with “Reaction without enzyme was used as a blank control in the plate.” left out
as §3

[2] = Table 2 selectivity profile, read-out: MMP-12 Activity (IC50 class)
[3] = readout at 30 minutes, 37° C., pH 7.5, Table 1, read-out: MMP-12 IC50

Chain of recombinant human MMP-2 (P08253 110-660): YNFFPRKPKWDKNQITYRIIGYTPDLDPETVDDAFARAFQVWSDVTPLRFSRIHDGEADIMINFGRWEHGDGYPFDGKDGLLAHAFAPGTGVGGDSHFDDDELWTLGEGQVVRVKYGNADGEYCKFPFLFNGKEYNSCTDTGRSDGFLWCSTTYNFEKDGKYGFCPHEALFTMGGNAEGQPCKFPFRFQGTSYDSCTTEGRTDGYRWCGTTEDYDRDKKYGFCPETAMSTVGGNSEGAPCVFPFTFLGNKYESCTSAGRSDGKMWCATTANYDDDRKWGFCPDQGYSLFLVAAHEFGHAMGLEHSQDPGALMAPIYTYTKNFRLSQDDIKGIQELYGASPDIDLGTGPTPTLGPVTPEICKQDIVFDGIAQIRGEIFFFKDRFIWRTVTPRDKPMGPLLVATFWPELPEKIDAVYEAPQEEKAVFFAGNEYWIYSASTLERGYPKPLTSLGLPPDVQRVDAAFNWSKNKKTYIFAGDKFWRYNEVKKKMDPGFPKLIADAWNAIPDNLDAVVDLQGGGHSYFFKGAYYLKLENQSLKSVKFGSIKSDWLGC
Chain of recombinant human MMP-8 (P22894 101-467): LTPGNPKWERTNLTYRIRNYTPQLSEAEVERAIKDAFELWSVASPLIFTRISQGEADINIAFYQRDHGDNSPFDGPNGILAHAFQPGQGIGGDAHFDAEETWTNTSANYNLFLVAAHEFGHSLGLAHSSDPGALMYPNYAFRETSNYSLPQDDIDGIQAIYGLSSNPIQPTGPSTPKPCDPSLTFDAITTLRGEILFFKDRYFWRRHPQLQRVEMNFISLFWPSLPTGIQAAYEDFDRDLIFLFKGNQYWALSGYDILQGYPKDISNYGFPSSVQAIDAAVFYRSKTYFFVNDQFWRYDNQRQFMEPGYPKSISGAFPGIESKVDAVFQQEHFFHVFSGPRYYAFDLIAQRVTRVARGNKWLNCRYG
Chain of recombinant human MMP-10 (P09238 99-476): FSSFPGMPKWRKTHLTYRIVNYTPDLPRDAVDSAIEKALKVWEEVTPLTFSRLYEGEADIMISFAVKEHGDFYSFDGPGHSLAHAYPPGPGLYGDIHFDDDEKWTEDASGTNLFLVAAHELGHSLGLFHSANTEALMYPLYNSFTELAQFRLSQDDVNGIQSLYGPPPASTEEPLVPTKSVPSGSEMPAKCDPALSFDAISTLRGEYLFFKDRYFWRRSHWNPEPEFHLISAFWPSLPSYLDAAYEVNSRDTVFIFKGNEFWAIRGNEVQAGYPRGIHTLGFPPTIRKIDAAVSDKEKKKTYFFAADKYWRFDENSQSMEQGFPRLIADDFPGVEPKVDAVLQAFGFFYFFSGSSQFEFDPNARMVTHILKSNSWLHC
Chain of recombinant human MMP-12 catalytic domain (P39900 106-268): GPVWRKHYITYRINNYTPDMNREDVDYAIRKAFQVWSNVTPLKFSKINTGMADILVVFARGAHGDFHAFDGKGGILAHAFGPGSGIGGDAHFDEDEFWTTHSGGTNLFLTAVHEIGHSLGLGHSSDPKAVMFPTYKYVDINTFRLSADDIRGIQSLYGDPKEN
Chain of recombinant human MMP-9 (P14780 94-707): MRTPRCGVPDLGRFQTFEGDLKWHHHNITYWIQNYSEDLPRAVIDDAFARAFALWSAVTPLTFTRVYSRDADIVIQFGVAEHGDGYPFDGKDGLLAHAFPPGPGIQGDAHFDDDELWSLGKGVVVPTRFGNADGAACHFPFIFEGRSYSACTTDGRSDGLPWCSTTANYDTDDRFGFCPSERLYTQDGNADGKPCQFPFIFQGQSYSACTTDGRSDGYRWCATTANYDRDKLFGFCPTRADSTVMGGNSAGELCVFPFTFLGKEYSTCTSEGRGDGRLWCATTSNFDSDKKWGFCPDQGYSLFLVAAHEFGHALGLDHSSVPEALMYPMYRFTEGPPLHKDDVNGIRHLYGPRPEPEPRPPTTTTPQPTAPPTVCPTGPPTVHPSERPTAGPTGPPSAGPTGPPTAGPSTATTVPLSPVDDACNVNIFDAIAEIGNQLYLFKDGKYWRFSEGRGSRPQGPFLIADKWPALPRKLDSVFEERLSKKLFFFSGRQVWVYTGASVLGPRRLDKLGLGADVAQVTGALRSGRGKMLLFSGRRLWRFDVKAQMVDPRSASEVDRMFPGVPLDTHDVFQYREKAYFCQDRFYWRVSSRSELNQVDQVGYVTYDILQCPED
Chain of recombinant human MMP-3 (P08254 100-477): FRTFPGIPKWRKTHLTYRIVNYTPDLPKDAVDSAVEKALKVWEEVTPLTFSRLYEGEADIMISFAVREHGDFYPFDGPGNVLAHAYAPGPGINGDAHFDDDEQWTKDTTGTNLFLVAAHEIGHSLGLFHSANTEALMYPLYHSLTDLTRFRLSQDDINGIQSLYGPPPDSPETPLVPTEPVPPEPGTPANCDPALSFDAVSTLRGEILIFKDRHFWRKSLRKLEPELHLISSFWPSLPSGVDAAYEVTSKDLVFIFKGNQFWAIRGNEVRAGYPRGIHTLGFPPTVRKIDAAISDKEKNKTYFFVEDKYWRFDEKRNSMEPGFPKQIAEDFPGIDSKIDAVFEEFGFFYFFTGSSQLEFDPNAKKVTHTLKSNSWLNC
Chain of recombinant human MMP-7 (P09237 95-267): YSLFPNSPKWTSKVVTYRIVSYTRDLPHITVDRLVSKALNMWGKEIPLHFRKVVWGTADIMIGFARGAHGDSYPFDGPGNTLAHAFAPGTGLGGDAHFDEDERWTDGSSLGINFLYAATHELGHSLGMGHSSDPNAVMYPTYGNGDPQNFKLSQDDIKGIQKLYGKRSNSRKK

Row | SMILES | IC50 [1, 2] [µM] | IC50 [1, 3] [µM] | IC50 (recombinant human MMP-9) [µM] | IC50 (recombinant human MMP-10) [µM] | IC50 (recombinant human MMP-2) [µM] | further results
1 | Cc1cc(COc2ccc(Sc3ncoc3C3NC(=O)NC3=O)cc2)ccn1 (stereo not shown) [OC-7] | < 0.01 | < 0.01 | > 1 | > 1 | – | IC50 (recombinant human MMP-3): > 1 µM
2 | Cc1cc(COc2ccc(Sc3ocnc3C3NC(=O)NC3=O)cc2)ccn1 (stereo not shown) [OC-11] | – | > 1 | – | – | – | –
3 | Cc1cc(COc2ccc(Sc3cnn(C)c3C3NC(=O)NC3=O)cc2)ccn1 (stereo not shown) [OC-12] | < 0.01 | < 0.01 | > 1 | > 1 | – | IC50 (recombinant human MMP-3): > 1 µM; IC50 (recombinant human MMP-14): > 1 µM
4 | Cc1cc(COc2ccc(Sc3ncn(C)c3C3NC(=O)NC3=O)cc2)ccn1 (stereo not shown) [OC-13] | < 0.01 | < 0.01 | > 1 | > 1 | – | IC50 (recombinant human MMP-3): > 1 µM
5 | O=C1NC(=O)C(c2cnccc2Sc2ccc(OCc3cccc(CO)c3)cc2)N1 (stereo not shown) [PC-8] | < 0.01 | < 0.01 | – | – | > 1 | IC50 (recombinant human MMP-3): > 1 µM; IC50 (recombinant human MMP-13): > 1 µM
6 | O=C1NC(=O)C(c2cnccc2Sc2ccc(OCc3cccc(O)c3)cc2)N1 (stereo not shown) [PC-10] | < 0.01 | < 0.01 | > 1 | – | > 1 | IC50 (recombinant human MMP-3): > 1 µM; IC50 (recombinant human MMP-8): > 1 µM; IC50 (recombinant human MMP-13): > 1 µM
7 | O=C1NC(=O)C(c2ccncc2Sc2ccc(OCc3ccccc3CO)cc2)N1 (stereo not shown) [PC-12] | < 0.01 | < 0.01 | > 1 | > 1 | > 1 | IC50 (recombinant human MMP-8): > 1 µM
8 | O=C1NC(=O)C(c2ccncc2Sc2ccc(OCc3cccc(CO)c3)cc2)N1 (stereo not shown) [PC-13] | < 0.01 | < 0.01 | > 1 | > 1 | > 1 | IC50 (recombinant human MMP-8): > 1 µM; IC50 (recombinant human MMP-13): > 1 µM
9 | O=C1NC(=O)C(c2ccncc2Sc2ccc(OCc3cccc(O)c3)cc2)N1 (stereo not shown) [PC-15] | – | < 0.01 | – | – | – | –
10 | Cc1cc(COc2ccc(Sc3cnccc3C3NC(=O)NC3=O)cc2)ccn1 (stereo not shown) [PC-18] | – | < 0.01 | – | – | – | –
11 | O=C1NC(=O)C(c2cnccc2Sc2ccc(OCc3ccnc(C(=O)O)c3)cc2)N1 (stereo not shown) [PC-20] | – | > 1 | – | – | – | –
12 | O=C1NC(=O)C(c2cnccc2Sc2ccc(OCc3cncc(C(=O)O)c3)cc2)N1 (stereo not shown) [PC-21] | – | > 1 | – | – | – | –
13 | CCC1(c2cnccc2Sc2ccc(OCc3cccc(C)c3)cc2)NC(=O)NC1=O (stereo not shown) [PC-22] | < 0.01 | < 0.01 | > 1 | > 1 | > 1 | IC50 (recombinant human MMP-8): > 1 µM; IC50 (recombinant human MMP-14): > 1 µM
14 | O=C1NC(=O)C(c2ccncc2Sc2ccc(OCc3cncc(C(=O)O)c3)cc2)N1 (stereo not shown) [PC-24] | – | > 1 | – | – | – | –
15 | NC(=O)c1cccc(COc2ccc(Sc3ccncc3C3NC(=O)NC3=O)cc2)c1 (stereo not shown) [PC-28] | < 0.01 | < 0.01 | > 1 | > 1 | > 1 | IC50 (recombinant human MMP-3): > 1 µM; IC50 (recombinant human MMP-14): > 1 µM
16 | NC(=O)c1ccncc1COc1ccc(Sc2ccncc2C2NC(=O)NC2=O)cc1 (stereo not shown) [PC-38] | – | > 1 | – | – | – | –

Row | SMILES | IC50 [1, 2] [µM] | IC50 [1, 3] [µM] | IC50 (recombinant human MMP-9) [µM] | IC50 (recombinant human MMP-10) [µM] | IC50 (recombinant human MMP-2) [µM] | further results
17 | O=C1NC(=O)C(c2cnccc2Sc2ccc(OCc3ccnc(CO)c3)cc2)N1 (stereo not shown) [PC-40] | – | < 0.01 | – | – | – | –
18 | Cc1cccc(OCc2ccc(Sc3ccncc3C3NC(=O)NC3=O)cc2)c1 (stereo not shown) [PC-43] | – | > 1 | – | – | – | –
19 | Cc1cc(COc2ccc(Sc3ccncc3C3(C)C(=O)N(C)C(=O)N3C)cc2)ccn1 (stereo not shown) [PC-46] | – | > 1 | – | – | – | –
20 | O=C1NC(=O)C(c2ccncc2Sc2ccc(OCc3cncc(CO)c3)cc2)N1 (stereo not shown) [PC-47] | – | > 1 | – | – | – | –
21 | Cc1cc(COc2ccc(Sc3ccncc3C3NC(=O)NC3=O)cc2C)ccn1 (stereo not shown) [PC-48] | < 0.01 | < 0.01 | > 1 | > 1 | > 1 | IC50 (recombinant human MMP-3): > 1 µM; IC50 (recombinant human MMP-8): > 1 µM
22 | Cc1cc(COc2ccc(Sc3ccncc3C3NC(=O)NC3=O)c(F)c2)ccn1 (stereo not shown) [PC-50] | < 0.01 | < 0.01 | > 1 | > 1 | – | IC50 (recombinant human MMP-14): > 1 µM
23 | Cc1cc(COc2ccc(Sc3ccncc3C3NC(=O)NC3=O)c(Cl)c2)ccn1 (stereo not shown) [PC-51] | < 0.01 | < 0.01 | > 1 | > 1 | > 1 | IC50 (recombinant human MMP-3): > 1 µM; IC50 (recombinant human MMP-7): > 1 µM; IC50 (recombinant human MMP-14): > 1 µM
24 | Cc1cc(COc2ccc(Sc3ccncc3C3C(=O)N(C)C(=O)N3C)cc2)ccn1 (stereo not shown) [PC-54] | – | > 1 | – | – | – | –
25 | NC(=O)c1cc(COc2ccc(Sc3cnccc3C3NC(=O)NC3=O)cc2)ccn1 (stereo not shown) [PC-59] | – | 0.1 to 1 | – | – | – | –
26 | CCC1(c2cnccc2Sc2ccc(OCc3ccnc(C)c3)cc2)NC(=O)NC1=O (stereo not shown) [PC-63] | – | < 0.01 | – | – | – | –
27 | CCC1(c2ccncc2Sc2ccc(OCc3ccnc(C)c3)cc2)NC(=O)NC1=O (stereo not shown) [PC-64] | – | < 0.01 | – | – | – | –
28 | O=C1NC(=O)C(c2sccc2Sc2ccc(OCc3cccc(CO)c3)cc2)N1 (stereo not shown) [TC4] | < 0.01 | < 0.01 | > 1 | > 1 | > 1 | IC50 (recombinant human MMP-13): > 1 µM; IC50 (recombinant human MMP-14): > 1 µM
29 | O=C1NC(=O)C(c2sccc2Sc2ccc(OCc3ccccc3CO)cc2)N1 (stereo not shown) [TC5] | < 0.01 | < 0.01 | > 1 | > 1 | > 1 | IC50 (recombinant human MMP-3): > 1 µM; IC50 (recombinant human MMP-8): > 1 µM
30 | O=C1NC(=O)C(c2sccc2Sc2ccc(OCc3ccc(CO)cc3)cc2)N1 (stereo not shown) [TC6] | – | < 0.01 | – | – | – | –
31 | O=C1NC(=O)C(c2sccc2Sc2ccc(OCc3cccc(O)c3)cc2)N1 (stereo not shown) [TC7] | – | < 0.01 | – | – | – | –
32 | Cc1cc(COc2ccc(Sc3ccsc3C3NC(=O)NC3=O)cc2)ccn1 (stereo not shown) [TC8] | < 0.01 | < 0.01 | – | – | – | IC50 (recombinant human MMP-7): > 1 µM
